Laboratory results as given in ChEMBL document CHEMBL6096665 (Eur J Med Chem, 2025).

Biological target: T1, Bile acid receptor (Homo sapiens, UniProt Q96RI1)
T1 sequence (Q96RI1 whole entry): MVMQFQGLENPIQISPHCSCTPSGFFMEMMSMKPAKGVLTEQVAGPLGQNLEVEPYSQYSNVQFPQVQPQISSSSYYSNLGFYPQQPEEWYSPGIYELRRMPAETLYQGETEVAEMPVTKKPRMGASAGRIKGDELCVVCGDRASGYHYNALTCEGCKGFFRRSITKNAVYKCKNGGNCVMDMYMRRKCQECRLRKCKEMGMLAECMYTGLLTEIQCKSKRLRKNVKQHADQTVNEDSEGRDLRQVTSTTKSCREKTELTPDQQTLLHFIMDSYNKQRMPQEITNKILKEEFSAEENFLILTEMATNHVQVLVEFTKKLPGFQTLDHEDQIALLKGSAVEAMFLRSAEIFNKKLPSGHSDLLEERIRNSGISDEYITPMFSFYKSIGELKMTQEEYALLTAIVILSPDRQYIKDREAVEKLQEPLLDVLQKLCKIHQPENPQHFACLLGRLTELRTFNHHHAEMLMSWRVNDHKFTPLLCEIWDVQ
Test: Agonist activity at FXR-LBD (unknown origin) incubated for 3 hrs using fluorescein coactivator peptide by FRET assay

EC50: 253 nM
SMILES: O=C(O)c1ccc(OCc2ccc(OCc3c(-c4c(Cl)cccc4Cl)noc3C3CC3)cc2)cc1
